The text below walks through data of article PMC9606943, “Synthesis and Chemopreventive Potential of 5-FU/Genistein Hybrids on Colorectal Cancer Cells” (Pharmaceuticals, 2022).

The term IC50 denotes the point on the concentration scale where inhibition reaches its midpoint. A word on the melting point: it is the temperature, or range, at which the solid turns liquid.

Where two headings read alike, the source gives them in different places. Where only a bound is given, the exact number is not on record here.

For one series, the system named is CHO-K1. As to the kind of experiment: Sulforhodamine B cytotoxicity assay, CHO-K1. In kind it is cell-based, chinese hamster. The conditions noted are these: 48 h, mean ± SE, non-malignant cells. The method, then: (§1) Two colon cancer cells (SW480 and SW620) and non-malignant cell lines (human keratinocytes, HaCaT; chinese hamster ovary, CHO-K1) were obtained from The European Collection of Authenticated Cell Cultures (ECACC, England). For biological evaluations, cells were cultured in Dulbecco’s Modified Eagle Medium, supplemented with 10% heat-inactivated (56 °C) horse serum, 1% penicillin/streptomycin and 1% non-essential amino acids (Gibco Invitrogen, Carlsbad, CA, USA). During the treatments, the serum was reduced to 3%, and the medium was supplemented with insulin ([…]) transferrin ([…]) and selenium (5 ng/mL) (ITS-defined medium; Gibco, Invitrogen, Carlsbad, USA). To avoid Mycoplasma spp. contamination, cell cultures were regularly tested by polymerase chain reaction.
(§2) Briefly, cells were seeded at 20,000 cells/well (for cytotoxicity assay) and 2500 cells/well (for the antiproliferative test) in 96-well tissue culture plates, incubating at 37 °C in a humidified atmosphere with 5% CO2. After the adaptation time (24 h), cells were treated with increasing concentrations of the hybrid molecules or DMSO (1%). At the end of each treatment, cells were fixed with trichloroacetic acid (50% v/v; MERCK) for one hour at 4 °C. Subsequently, cell proteins were stained with SRB (0.4% w/v; Sigma-Aldrich, United States) and washed with acetic acid (1%). After drying at room temperature, Tris-base (10 mM) was added to solubilize protein bound stain. Absorbance was read in a microplate reader (Mindray MR-96A) at 492 nm. All experiments were performed at least in duplicate.
(Sulforhodamine B stains cellular protein and so reports cell mass.)

The test system of series [1] is SW620. As to the kind of experiment: Sulforhodamine B cytotoxicity assay, SW620. The conditions noted are these: 48 h; for IC50: mean ± SE. The format is cell-based, human. The method, then: as §1, §2
In the next series the test system is HaCaT. As to the kind of experiment: Sulforhodamine B cytotoxicity assay, HaCaT. In kind it is cell-based, human. The conditions noted are these: 48 h, mean ± SE, non-malignant cells. Here is the method:
as §1, §2

A further series relates to SW480. As to the kind of experiment: Sulforhodamine B cytotoxicity assay, SW480. The format is cell-based, human. The conditions noted are these: 48 h; for IC50: mean ± SE. Here is the method: as §1, §2
In another series the test system is normal VERO cells. Particulars: cited from earlier work.
The subject of series [2] is human gastric cancer cell line (SGC-7901). Also noted: method as in doi:10.1039/C6MD00268D. Particulars: cited from earlier work.
Series [3] deals with SW620. Briefly: Antiproliferative activity (sulforhodamine B), SW620. The format is cell-based, human. Particulars: dose- and time-dependent, from day 2 above 12.5 µM, from day 4 at 6.25 µM. Here is the method:
as §2

The subject of series [4] is SW620 cells. As to the kind of experiment: Cell cycle distribution (PI, flow cytometry), SW620. The format is cell-based, human. Particulars: 48 h, IC50 concentration, versus DMSO control. The method, then:
Cell cycle analysis was evaluated by flow cytometry using propidium iodide (PI). This experiment was carried out as previously described by Nicoletti et al. (1991). Then, 48 h after treatment with the IC50 value of the hybrids 4a, 4g and DMSO (1%) as a vehicle control, cells were collected by scraping and centrifugation, resuspending the cell pellet in a versene buffer. Thereafter, cells were fixed with 1.8 mL cold ethanol (70%) at 4 °C overnight. Alcohol was removed by subsequent washing twice with versene buffer. The final pellet was resuspended in 300 µL of PBS with 0.25 mg/mL RNAse (Type I-A, Sigma-Aldrich, Germany) and 0.1 mg/mL PI and incubated for 30 min in the dark at room temperature. FACS Canto II flow cytometer (BD Biosciences, USA) was used to read the PI fluorescence of 10,000 events. The analysis of data was performed with the software FlowJo 7.6.2 (Ashland, OR, USA).

Series [5] relates to SW620 cells. Briefly: Cell death induction (Annexin V/FITC and PI), SW620. Particulars: 48 h.
Protocol: (§3) SW480 and SW620 cells were treated for 48 h and further collected by scraping. After centrifugation, the cell pellet was resuspended in Annexin V/FITC–PI and incubated in darkness for 20 min. Data were obtained through flow cytometry and analyzed with FlowJo 7.6.2 (Ashland, OR, USA). […] Cells with positive staining for PI were considered dead cells, late apoptotic cells, necroptotic cells or secondary necrotic cells. All assays were repeated twice [56].
In series [6] the test system is SW620 cells. As to the kind of experiment: Mitochondrial membrane potential and plasma membrane integrity (DiOC6/PI), SW620. The conditions noted are these: 48 h, IC50 concentration. The format is cell-based, human. Here is the method: The fluorescent dyes DiOC6 (3,3′-dihexyloxacarbocyanine iodide, Thermo Fisher Scientific, Waltham, MA, USA) and propidium iodide (PI) were used to evaluate possible changes in mitochondrial membrane potential induced by the hybrid molecules. Then, 2.5 × 10^5 cells/well were seeded in 6-well tissue culture plates and allowed to grow for 24 h. Then, these were treated with hybrids 4a and 4g (with the IC50 value for each compound). Cells were harvested by scrapping 48 h after treatment, stained with DiOC6 and propidium iodide (PI) at room temperature for 30 min in darkness. Flow cytometric analysis of 10,000 events was carried out to quantify cells with mitochondrial depolarization, excitation at 488 nm and detection of the emission with the green (530/15 nm) and the red (610/20 nm) filters.

Series [7] deals with SW620 cells.
Protocol: as §3

On to “5-fluoro-1-((1-(3-((5-hydroxy-3-(4-hydroxyphenyl)-4-oxo-4H-chromen-7-yl)oxy)pentyl)-1H-1,2,3-triazol-4-yl)methyl)pyrimidine-2,4(1H,3H)-dione [4d]”, for which the half-inhibitory concentration (IC50) in the series on CHO-K1, with SW620 [1], with HaCaT and in the series with SW480 was > 100 µM throughout.

Consider “5-fluoro-1-((1-(3-((5-hydroxy-3-(4-hydroxyphenyl)-4-oxo-4H-chromen-7-yl)oxy)dodecyl)-1H-1,2,3-triazol-4-yl)methyl)pyrimidine-2,4(1H,3H)-dione”, for which the IC50 with CHO-K1 was > 100 µM; in the series on SW620 [1], 83.6 ± 8.05 µM; in the series on HaCaT, > 100 µM; in the series with SW480, > 100 µM. The “Selectivity Index (SI) CHO-K1/620” value in the series on SW620 [1] is given as >1.20. Moreover, the “Selectivity Index (SI) HaCaT/SW620” value in the series on SW620 [1] is reported as >1.20.

`O=c1[nH]cc(F)c(=O)[nH]1` [5-FU, 5-fluorouracil]: the IC50 in the series on normal VERO cells is 3.33 µM. Also, in the series on SW480, the “Selectivity Index (SI) CHO-K1/SW480” value was determined as 0.99 and the “Selectivity Index (SI) HaCaT/SW480” value is 0.68. In addition, the “selectivity index SGC-7901 versus GES-1” value in series [2] (at 50 µM) was 0.88. Further, the “selectivity index SGC-7901 versus GES-1” value in series [2] (at the concentration of 10 µM) is 0.74.

Turning to “5-fluoro-1-((1-(3-((5-hydroxy-3-(4-hydroxyphenyl)-4-oxo-4H-chromen-7-yl)oxy)hexyl)-1H-1,2,3-triazol-4-yl)methyl)pyrimidine-2,4(1H,3H)-dione [4e]”, the concentration for half-maximal inhibition (IC50) in the series on CHO-K1, with SW620 [1], with HaCaT and in the series on SW480 was > 100 µM throughout.

For the compound `O=C(Cn1cc(F)c(=O)[nH]c1=O)NCC[n+]1ccc(/C=C/c2c[nH]c3ccccc23)cc1` [C2], the entries for the “selectivity index SGC-7901 versus GES-1” value in [2] (at 50 µM) and in series [2] (at the concentration of 10 µM) were 1.20 and 1.08, respectively.

Take “5-fluoro-1-((1-(3-((5-hydroxy-3-(4-hydroxyphenyl)-4-oxo-4H-chromen-7-yl)oxy)butyl)-1H-1,2,3-triazol-4-yl)methyl)pyrimidine-2,4(1H,3H)-dione [4c]”: the 50% inhibitory concentration (IC50) in the series on CHO-K1, in the series with SW620 [1], in the series on HaCaT and in the series with SW480 was > 100 µM each time.

Regarding “5-fluoro-1-((1-(3-((5-hydroxy-3-(4-hydroxyphenyl)-4-oxo-4H-chromen-7-yl)oxy)nonyl)-1H-1,2,3-triazol-4-yl)methyl)pyrimidine-2,4(1H,3H)-dione [4g]”, the IC50 with CHO-K1 was > 100 µM; with SW620 [1], 36.8 ± 0.71 µM; with HaCaT, > 100 µM; with SW480, > 100 µM. Moreover, the “Antiproliferative activity (cell viability)” value in the series on SW620 [3] was “significant decrease in the percentages of cell viability”. Besides, in the series with SW620 [1], the “Selectivity Index (SI) CHO-K1/620” value is reported as >2.71. Moreover, in the series on SW620 [1], the “Selectivity Index (SI) HaCaT/SW620” value was >2.71. In addition, in the series with SW620 cells [4], the “Effect on cell cycle distribution” value was “important decrease in the population of cells in S-phase with a slight increase in G0/G1”. Moreover, the “Plasma membrane integrity / cell death” value in the series on SW620 cells [5] is recorded as “caused a loss in membrane integrity”. Moreover, in the series on SW620 cells [6], the “Change in mitochondrial membrane potential” value is “do not induce significant changes in mitochondrial membrane potential”. Also, the “Q3 (viable cells per legend)” value with SW620 cells [7] is listed as 0,00%.

In the case of `O=c1c(-c2ccc(O)cc2)coc2cc(O)cc(O)c12` [Genistein], the IC50 is 48.4 ± 4.13 µM in the series with CHO-K1 (Cricetulus griseus, CHO-K1); 75.8 ± 5.83 µM in the series on SW620 [1] (Homo sapiens, SW-620); 45.9 ± 1.97 µM with HaCaT (Homo sapiens, HaCaT); 48.1 ± 3.03 µM in the series with SW480 (Homo sapiens, SW480). In addition, in the series on SW620 [1], the “Selectivity Index (SI) CHO-K1/620” value was found to be 0.64. Further, the “Selectivity Index (SI) HaCaT/SW620” value in the series on SW620 [1] was determined as 0.63. For the same compound, the “Selectivity Index (SI) CHO-K1/SW480” value in the series on SW480 worked out at 1.01. For the same compound, in the series on SW480, the “Selectivity Index (SI) HaCaT/SW480” value worked out at 0.95.

As for “5-fluoro-1-((1-(3-((5-hydroxy-3-(4-hydroxyphenyl)-4-oxo-4H-chromen-7-yl)oxy)octyl)-1H-1,2,3-triazol-4-yl)methyl)pyrimidine-2,4(1H,3H)-dione [4f]”, the half-inhibitory concentration (IC50) in the series with CHO-K1 is > 100 µM. In the series with SW620 [1], the “Selectivity Index (SI) CHO-K1/620” value is >2.11, the “Selectivity Index (SI) HaCaT/SW620” value came to 1.05 and the 50% inhibitory concentration (IC50) came out at 47.4 ± 2.19 µM. The compound also came in with a half-inhibitory concentration (IC50) in the series with HaCaT of 50 ± 7.17 µM. Further, in the series with SW480, the “Selectivity Index (SI) CHO-K1/SW480” value is listed as >1.02, the “Selectivity Index (SI) HaCaT/SW480” value came to 0.51 and half-maximal inhibition (IC50) was put at 97.5 ± 5.04 µM.

As to `O=c1[nH]c(=O)n(Cc2cn(CCCOc3cc(O)c4c(=O)c(-c5ccc(O)cc5)coc4c3)nn2)cc1F` [4b, 5-fluoro-1-((1-(3-((5-hydroxy-3-(4-hydroxyphenyl)-4-oxo-4H-chromen-7-yl)oxy)propyl)-1H-1,2,3-triazol-4-yl)methyl)pyrimidine-2,4(1H,3H)-dione], the melting point was 175 to 178 °C. Also, the IC50 with CHO-K1 (Cricetulus griseus, CHO-K1) was > 100 µM. The 50% inhibitory concentration (IC50) in the series on SW620 [1] (Homo sapiens, SW-620) was > 100 µM. In addition, the IC50 with HaCaT (Homo sapiens, HaCaT) was > 100 µM. In addition, the concentration for half-maximal inhibition (IC50) in the series with SW480 (Homo sapiens, SW480) is > 100 µM.

Consider `O=C(Cn1cc(F)c(=O)[nH]c1=O)OCC[n+]1ccc(/C=C/c2c[nH]c3ccccc23)cc1` [C1], for which, in series [2] (at the concentration of 10 µM), the “selectivity index SGC-7901 versus GES-1” value was 1.16.
